Activity calls are given as the source filed them. The calls are words filed in the database; no cut-off is given here.
Key:
[1] = tested on: Human immunodeficiency virus 1; experiment: Antiviral activity against Human immunodeficiency virus 1 LAV1 assessed as reduction in RT activity by [3H]-dTTP incorporation assay; format: functional, organism-based
[2] = Cytotoxicity against human PBMC infected with Human immunodeficiency virus 1 LAV1 by MTS assay; format: cell-based
[3] = Selectivity index, ratio of CC50 for human PBMC infected with Human immunodeficiency virus 1 LAV1 to EC50 for Human immunodeficiency virus 1 LAV1
[4] = Selectivity index, ratio of CC50 for human HFF cells infected with […] to EC50 for Varicella-zoster virus Ellen; format: toxicity, cell-based; settings: read-out: Selectivity Index
[5] = Cytotoxicity against human HFF cells infected with Cowpox virus (Brighton Red) assessed as viable cells by neutral red uptake assay; format: cell-based
[6] = Antiviral activity against Cowpox virus (Brighton Red) infected in human HFF cells assessed as reduction in viral-induced cytopathic effect by neutral red uptake assay; format: functional, cell-based
[7] = Selectivity index, ratio of CC50 for human HFF cells infected with Cowpox virus (Brighton Red) to EC50 for Cowpox virus (Brighton Red); format: toxicity, cell-based; settings: read-out: Selectivity Index
Hepatitis C virus [8] = experiment: Antiviral activity against Hepatitis C virus infected in human Huh7ET cells assessed as viral RNA level by RT-PCR; format: functional, organism-based; settings: Huh-7; for Activity: Hepacivirus hominis
Vaccinia virus = experiment: Antiviral activity against Vaccinia virus Copenhagen infected in human HFF cells assessed as reduction in viral-induced cytopathic effect by neutral red uptake assay; format: functional, organism-based, Orthopoxvirus vaccinia
Human alphaherpesvirus 3 [9] = experiment: Antiviral activity against Varicella-zoster virus Ellen infected in 1 hr pretreated human HFF cells assessed as reduction in viral-induced cytopathic effect by neutral red uptake assay; format: functional, organism-based; settings: Human alphaherpesvirus 3, Ellen
[10] = Cytotoxicity against human HFF cells infected with Human cytomegalovirus AD169 assessed as viable cells by neutral red uptake assay; format: cell-based
Hepatitis C virus [11] = experiment: Antiviral activity against Hepatitis C virus infected in human Huh7ET cells assessed as inhibition of viral replication by luciferase reporter gene assay; format: functional, organism-based, Hepacivirus hominis; settings: Huh-7
[12] = Selectivity index, ratio of CC50 for human Huh7ET cells infected with Hepatitis C virus to EC50 for Hepatitis C virus by luciferase reporter gene assay; format: toxicity, cell-based, Huh-7; settings: read-out: Selectivity Index
[13] = Selectivity index, ratio of CC50 for human HFF cells infected with Cowpox virus (Brighton Red) to EC50 for Vaccinia virus Copenhagen; format: toxicity, cell-based; settings: read-out: Selectivity Index
Human betaherpesvirus 5 [14] = experiment: Antiviral activity against Human cytomegalovirus (strain AD169) infected in 1 hr pretreated human HFF cells assessed as reduction in viral-induced cytopathic effect by neutral red uptake assay; format: functional, organism-based; settings: Human betaherpesvirus 5, AD169, HFF
[15] = Cytotoxicity against human HFF cells infected with Varicella-zoster virus Ellen assessed as viable cells by neutral red uptake assay; format: cell-based
[16] = Cytotoxicity against human HFF cells infected with Vaccinia virus Copenhagen assessed as viable cells by neutral red uptake assay; format: cell-based
Hepatitis C virus [17] = experiment: Antiviral activity against Hepatitis C virus infected in human Huh7ET cells assessed as inhibition of viral replication at 20 uM by luciferase reporter gene assay; format: functional, Hepacivirus hominis; settings: Huh-7
[18] = Selectivity index, ratio of CC50 for human HFF cells infected with […] to EC50 for Human cytomegalovirus AD169; format: toxicity, cell-based; settings: read-out: Selectivity Index
[19] = Selectivity index, ratio of CC90 for human Huh7ET cells infected with Hepatitis C virus to EC90 for Hepatitis C virus by luciferase reporter gene assay; format: toxicity, cell-based, Huh-7; settings: read-out: Selectivity Index
[20] = Selectivity index, ratio of CC50 for human Huh7ET cells infected with Hepatitis C virus to EC50 for Hepatitis C virus by RT-PCR; format: toxicity, cell-based, Huh-7; settings: read-out: Selectivity Index
[21] = Cytotoxicity against human Huh7ET cells infected with Hepatitis C virus assessed as ribosomal RNA level by RT-PCR; format: cell-based, Huh-7
[22] = Selectivity index, ratio of CC90 for human Huh7ET cells infected with Hepatitis C virus to EC90 for Hepatitis C virus by RT-PCR; format: toxicity, cell-based, Huh-7; settings: read-out: Selectivity Index
Human betaherpesvirus 5 [23] = experiment: Antiviral activity against Human cytomegalovirus (strain AD169) infected in human HFF cells assessed inhibition of viral replication after 1 hr by plaque reduction assay; format: functional, organism-based; settings: Human betaherpesvirus 5, AD169, HFF
[24] = Selectivity index, ratio of CC50 for human HFF cells infected with […] to EC50 for Human cytomegalovirus AD169 after 1 hr by plaque reduction assay; format: toxicity, cell-based; settings: read-out: Selectivity Index
[25] = Cytotoxicity against human HFF cells infected with Human cytomegalovirus AD169 assessed as viable cells after 1 hr by plaque reduction assay; format: cell-based
Human alphaherpesvirus 3 [26] = experiment: Antiviral activity against Varicella-zoster virus Ellen infected in human HFF cells assessed as inhibition of viral replication after 1 hr by plaque reduction assay; format: functional, organism-based; settings: Human alphaherpesvirus 3, Ellen
[27] = Selectivity index, ratio of CC50 for human HFF cells infected with […] to EC50 for Varicella-zoster virus Ellen after 1 hr by plaque reduction assay; format: toxicity, cell-based; settings: read-out: Selectivity Index
[28] = Cytotoxicity against human HFF cells infected with Varicella-zoster virus Ellen assessed as viable cells after 1 hr by plaque reduction assay; format: cell-based
[29] = Orthopoxvirus vaccinia, Copenhagen, HFF
[30] = Orthopoxvirus vaccinia, Copenhagen, HFF, read-out: EC50

SMILES	CC50 [5] [µM]	EC50 [6] [µM]	EC90 [6] [µM]	selectivity ratio [7]	EC90 (Vaccinia virus; [29]) [µM]	EC50 (Vaccinia virus; [30]) [µM]	EC50 (Human alphaherpesvirus 3 [9]) [µM]	CC50 [10] [µM]	EC50 (Hepatitis C virus [11]) [µM]	EC90 (Hepatitis C virus [11]) [µM]	selectivity ratio [12]	selectivity ratio [13]	EC50 (Human betaherpesvirus 5 [14]) [µM]	EC90 (Human betaherpesvirus 5 [14]) [µM]	CC50 [15] [µM]	CC50 [16] [µM]	selectivity ratio [19]	EC50 (Hepatitis C virus [8]) [µM]	EC90 (Hepatitis C virus [8]) [µM]	selectivity ratio [20]	other results
Cc1cn([C@H]2C[C@H](N=[N+]=[N-])[C@@H](CO)O2)c(=O)[nH]c1=O [ZIDOVUDINE]	–	–	–	–	–	–	–	–	–	–	–	–	–	–	–	–	–	–	–	–	EC50 [1]: 0.0044 µM; EC90 [1]: 0.031 µM; CC50 [2]: > 100 µM; Selectivity Index [3]: >22727
CN(C)c1ccc(/C=N/N=c2\[nH]c(-c3ccc(F)cc3)cs2)cc1	> 300	36	> 300	> 8.3	84.9	73.6	16.6	> 300	6.32	> 20	> 3.2	> 4.1	> 300	> 300	> 300	> 300	–	–	–	–	selectivity ratio [4]: > 18.1; Activity (Hepatitis C virus [8]): inactive; EC90 (Human alphaherpesvirus 3 [9]): 26.5 µM
CCCCCCCCCCCCCCS/C(N)=N/N=C/c1ccc(N(C)C)cc1	–	–	–	–	–	–	–	–	–	–	–	–	–	–	–	–	–	–	–	–	Activity (Hepatitis C virus [8]): inactive; inhibition at 20 µM (Hepatitis C virus [17]): 31.4%
Nc1nc(O)c2ncn(COC(CO)CO)c2n1 [GANCICLOVIR]	–	–	–	–	–	–	–	> 100	–	–	–	–	–	–	–	–	–	–	–	–	selectivity ratio [18]: > 2500
NC(=S)N/N=C/c1ccc(Br)cc1F	> 300	115	294	> 2.6	239	110	> 300	> 300	0.28	5.93	> 71.4	> 2.7	> 300	> 300	> 300	> 300	> 3.4	0.25	> 20	48.8	EC90 (Human alphaherpesvirus 3 [9]): > 300 µM; CC50 [21]: ≥ 12.2 µM; CC90 [21]: > 20 µM
Nc1nc2c(ncn2COCCO)c(=O)[nH]1 [ACYCLOVIR]	–	–	–	–	–	–	1.1	–	–	–	–	–	–	–	> 100	–	–	–	–	–	selectivity ratio [4]: > 90.9; EC90 (Vaccinia virus; Orthopoxvirus vaccinia): inactive; EC50 (Vaccinia virus; hff): Not Active
Nc1ccn(C[C@@H](CO)OCP(=O)(O)O)c(=O)n1 [CIDOFOVIR]	> 317	6.7	18.4	> 47.3	20	9.8	–	–	–	–	–	> 32.3	–	–	–	> 317	–	–	–	–	–
CC1=C(/C=C/C(C)=C/C=C/C(C)=C/C=N/[N-]C(=S)[N-]C(=S)[N-]/N=C/C=C(C)/C=C/C=C(C)/C=C/C2=C(C)CCCC2(C)C)C(C)(C)CCC1.O.[Na+].[Na+].[Na+]	11.8	> 2.4	> 2.4	< 4.9	> 2.4	> 2.4	–	–	0.85	4	15.2	> 4.9	–	–	–	11.8	> 5	0.36	1.97	31	selectivity ratio [22]: > 10.2; EC50 [1]: 1.4 µM; EC90 [1]: 6.5 µM; EC50 (Human betaherpesvirus 5 [23]): 2.4 µM; EC90 (Human betaherpesvirus 5 [23]): > 4 µM; selectivity ratio at 1 h [24]: 5.7; CC50 at 1 h [25]: 13.6 µM; CC50 [21]: 11.2 µM; CC90 [21]: > 20 µM; EC50 (Human alphaherpesvirus 3 [26]): 4.7 µM; EC90 (Human alphaherpesvirus 3 [26]): 17 µM; selectivity ratio at 1 h [27]: 7.1; CC50 [2]: 28.5 µM; Selectivity Index [3]: 5.2; CC50 at 1 h [28]: 33.3 µM
NC(=S)N/N=C/c1ccc(OC(F)(F)F)cc1	> 300	54.3	> 300	> 5.5	> 300	250	–	290	0.08	0.5	111	> 1.2	> 60	> 60	–	> 300	> 40	0.08	0.61	18	selectivity ratio [22]: 8.3; selectivity ratio [18]: < 4.8; CC50 [21]: 1.44 µM; CC90 [21]: ≥ 5.08 µM
Nc1nc2c(ncn2COC(CO)CO)c(=O)[nH]1 [GANCICLOVIR]	–	–	–	–	–	–	–	–	–	–	–	–	0.04	–	–	–	–	–	–	–	EC90 (Vaccinia virus; Orthopoxvirus vaccinia): inactive; EC50 (Vaccinia virus; hff): Not Active

— ChEMBL document CHEMBL1773001, “Broad-spectrum antiviral activity including human immunodeficiency and hepatitis C viruses mediated by a novel retinoid thiosemicarbazone derivative” (Eur J Med Chem, 2011)
